# Test system: TLR4
# Experiment: LPS-induced NFκB reporter assay in HEK293_TLR4 cells
# Format: cell-based, human
# Details: peptide 5 or 25 μM added 2 or 9 hours after 10 ng/ml LPS
# Description: FIGS. 20A and B are bar charts showing the effect of shortened A464 peptides with deletions of N- and C-terminal amino acids on TLR4- and TLR3-induced NFκB activation in HEK293 cells. HEK293_TLR4 (A) and HEK293_TLR3 (B) cells were seeded in 96 well plates (1.5×10^5 cells/ml) 24 hours before transfection with the plasmid DNA. Cells were transfected with 60 ng NFκB-Luciferase and 20 ng of TK-Renilla reporter genes, as in FIG. 11. A464N-2 (SEQ ID NO. 41) and A464C-3 (SEQ ID NO. 42) peptides were added to the cells at a concentration of 1, 5 or 25 μM the next day and cells were stimulated with either 10 ng/ml LPS (A) or 25 μg/ml Poly(I:C) (B) 1 hour after treatment with peptides. Cells were harvested and assayed for NFκB activation by reporter gene assay 6 hours after stimulation with the agonists. No peptides were added to the control wells (black bars). Data is representative of three experiments each performed in triplicate and is expressed as mean fold induction±s.d. relative to control levels;
# FIGS. 24A and B are bar charts showing the effect of A464 on ligand-independent TLR4 signalling in HEK293 cells. HEK293_TLR4 cells were seeded in 96 well plate (1.5×10^5 cells/ml) 24 hours before transfection with NFκB-luciferase and TK-Renilla reporter gene plasmids. NFκB activation was stimulated by transfecting either 50 or 100 ng of CD4/TLR4-encoding plasmid or by stimulating with 10 ng/ml LPS. The total amount of plasmid DNA transfected into the cells was made up to 230ng by adding pcDNA. A464 (SEQ ID NO. 20) was added to the cells at a concentration of 5 or 25 μM 2 hours (A) or 9 hours (B) after the transfection or LPS-stimulation. Cells were harvested and assayed for NFκB activation by reporter gene assay 24 hours post-transfection. No peptides were added to the control wells (black bars). Data is representative of two experiments, each performed in triplicate and is expressed as mean fold induction±s.d. relative to control levels;
# HEK293 cells were transfected using GeneJuice® a proprietary non-toxic transfection reagent. […]
# Chain of TLR4 (O00206 24-839): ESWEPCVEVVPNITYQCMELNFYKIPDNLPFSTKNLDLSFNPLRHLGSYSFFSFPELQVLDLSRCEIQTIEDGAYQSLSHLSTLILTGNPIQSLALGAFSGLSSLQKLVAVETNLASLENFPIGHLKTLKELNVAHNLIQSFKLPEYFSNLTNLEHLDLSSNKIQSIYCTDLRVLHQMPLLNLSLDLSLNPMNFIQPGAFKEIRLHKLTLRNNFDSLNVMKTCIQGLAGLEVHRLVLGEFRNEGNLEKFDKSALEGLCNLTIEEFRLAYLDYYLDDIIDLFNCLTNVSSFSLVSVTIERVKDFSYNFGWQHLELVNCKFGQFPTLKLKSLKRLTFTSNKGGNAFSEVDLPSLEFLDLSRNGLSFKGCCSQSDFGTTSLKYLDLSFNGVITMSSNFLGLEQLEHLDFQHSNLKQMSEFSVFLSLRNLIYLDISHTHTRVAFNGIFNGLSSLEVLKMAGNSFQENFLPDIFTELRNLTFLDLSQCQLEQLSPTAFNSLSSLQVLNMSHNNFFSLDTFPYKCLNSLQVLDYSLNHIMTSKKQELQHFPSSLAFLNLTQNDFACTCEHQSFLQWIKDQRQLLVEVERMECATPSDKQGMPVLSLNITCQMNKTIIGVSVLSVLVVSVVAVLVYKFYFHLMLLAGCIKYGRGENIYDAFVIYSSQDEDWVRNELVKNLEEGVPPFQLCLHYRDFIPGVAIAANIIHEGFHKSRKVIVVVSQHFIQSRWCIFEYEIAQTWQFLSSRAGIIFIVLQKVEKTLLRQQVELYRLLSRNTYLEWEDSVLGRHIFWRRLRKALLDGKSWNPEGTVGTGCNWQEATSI
# Chain of TLR4 (Q9Y6Y9 17-160 partner limits assumed): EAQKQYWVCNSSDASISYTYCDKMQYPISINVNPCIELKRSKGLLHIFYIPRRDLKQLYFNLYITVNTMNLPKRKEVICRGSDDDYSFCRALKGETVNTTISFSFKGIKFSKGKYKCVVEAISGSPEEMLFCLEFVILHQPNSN
sequence,measurement,value
KYSFKLILAEYRRRRRRRRR [Peptide A464],inhibition of LPS-induced NFκB activation,capable of inhibiting LPS-induced NFκB activation
